# Assay results reported in patent US7923230B2, “Neurodegenerative protein aggregation inhibition methods and compounds” (The Board of Trustees of the Leland Stanford Junior …, priority 2003, dated 2011).
# Columns and labels:
# Aβ(1-42) [1] = target: T1, Aβ(1-42) (Homo sapiens, UniProt P05067); test: Light scattering (turbidity) of Aβ(1-42) fibrillogenesis; assay type: biochemical
# T1 construct: purchased AnaSpec, San Jose, Calif; host or cells: synthetic peptide
# Method: Light Scattering. Fresh A13(1-42) (Anaspec, San Jose, Calif.) (SEQ ID NO: 2) was prepared by resuspending the peptide in […] pH 9.5 to 10, sonicating for 5 minutes, and passing the resulting solutions through a 10 kDa filter (YM-10; Millipore, Bedford, Mass.) (31). Stock solutions (100 μM in 2 mM NaOH) were stored at −80° C. and diluted to 25 uM with PBS pH 7.2 to initiate fibrillogenesis. Identical methods were used to prepare the Aβ(1-42) (SEQ ID NO: 2) solutions utilized for TEM, AFM, MTT, Tunel and thioflavin T experiments. Turbidity was measured at 30° C. with orbital shaking in half area, nonbinding surface 96-well plates (Corning) on a TECAN GENios plate reader. The total volume was 50 uL and the concentration of FKBP was 1 uM. The results are representative of two independent experiments each performed in triplicate.
# Aβ(1-42) [2] = target: T1, Aβ(1-42); test: Transmission electron microscopy of Aβ fibrils; assay type: biochemical; details: for size or abundance of Aβ fibrils (TEM): 1 uM drug, 1 μM FKBP where present
# Method: Transmission Electron Microscopy (TEM). Electron microscopy was performed essentially as previously described (Gordon, D. J. and Meredith, S. C. (2003) Biochemistry 42:475-485). Briefly, solutions subjected to the fibrillization conditions described above were applied to Formvar coated 400-mesh glow-discharged copper grids and contrasted with 1% uranyl acetate solution. Grids were analyzed at 80 kV and a magnification of 100,000×. Transmission Electron Microscopy. TEM was conducted using 300 mesh formvar-coated copper grids and 1% uranyl acetate stain on a JEOL TEM1230 and imaged with a Gatan 967 slow-scan CCD at 80 kV. Samples were incubated for 4 days at 22° C. in PBS pH 7.2 containing 25 uM Aβ(1-42) (SEQ ID NO: 2), 1 μM FKBP and 1 uM drug, where appropriate. The protocol used to prepare Aβ can influence fibrillogenesis and the reproducibility of the assays. Therefore, it can be useful to examine Aβ aggregation under a variety of conditions. In addition to the hydroxide method used above, stock solutions of Aβ were also prepared using a trifluoroacetic acid (TFA) protocol (Crystal, et al., J. Neurochem. 86, 1359-1368 (2003). TEM on samples originated from these stock solutions yielded similar results, although the typical size of the fibrils was considerably shorter.
# Rat hippocampal neurons [3] = test: Tunel staining / immunofluorescence microscopy of neurons exposed to Aβ; assay type: cell-based; details: for Tunel positive cells / Aβ toxicity: Aβ 25 uM, drug and FKBP 1 uM, incubated with Aβ prior to addition
# Method: Immunofluorescence Microscopy. Rat hippocampal neurons (P0) were cultured 10 days on Matrigel-coated glass coverslips (Deckgläser, Germany) in 24-well plates (Corning) at 37° C. and 5% CO2. Aβ solutions were prepared and applied as above. The final concentration of Aβ was 25 uM and drug and FKBP were present at 1 uM. Following a two-day incubation, cells were prepared for microscopy as described (R. Kayed, et al., Science 300, 486-489 (2003).
# FKBP12 = target: T2, FKBP12 (Homo sapiens, UniProt P62942); test: Surface plasmon resonance, binding to immobilized FKBP12; details: SPR
# T2 construct: made in house
# T2 sequence (P62942 whole entry): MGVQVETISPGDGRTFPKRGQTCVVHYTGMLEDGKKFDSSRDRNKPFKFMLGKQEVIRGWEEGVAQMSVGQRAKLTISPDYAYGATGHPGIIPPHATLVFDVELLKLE
# Method: (§1) Surface Plasmon Resonance. Amide coupling was used to generate a carboxymethyldextran (CMS; BIAcore, Uppsala, Sweden) sensor chip bearing a mockimmobilized surface on flow chamber 1 (Fc1), 950 RU of Aβ(1-40) (SEQ ID NO: 3) (AnaSpec, San Jose, Calif.) on Fc2, and 2800 RU of bacterially-expressed recombinant FKBP12 on Fc3. The regeneration conditions were as follows: for removing analyte from Aβ surfaces (4 M guanidine HCl, 10 mM Tris buffer pH 8.0) and for removing analyte from the FKBP surface (750 mM NaCl, 250 mM NaOH). To calculate KD1 and KD2 (±SEM) for Aβ binding (in part C), the control signal was subtracted and data was fit according to the method of Cairo et al. (Biochemistry 41, 8620-8629 (2002). In each case, eight concentrations of analyte distributed around the KD were injected in duplicate in the running buffer (HBS-EP; BIAcore). Congo red is not uniquely specific for Aβ and, consistent with this, it also binds FKBP, but at a KD 20-fold higher than SLF-CR.
# Aβ(1-42) [4] = target: T1, Aβ(1-42); test: Thioflavin T fluorescence assay of Aβ aggregation; assay type: biochemical; details: highest drug concentrations
# Method: Fibrillization Procedure. Purified amyloid beta (1-42) (SEQ ID NO: 2) was purchased from AnaSpec and used without further purification. Fibrillization conditions are based on those previously described by Gordon and Meredith (Gordon, D. J. and Meredith, S. C. (2003) Biochemistry 42:475-485). Briefly, peptide was dissolved in PBS to a final concentration of 100 uM. To this solution, was added either FKBP12 (to a final concentration of 1 uM) or an equivalent volume of buffer alone (100 mM NaCl, 10 mM Tris-HCl pH 7.0). Additionally, either agent (dissolved in DMF) or DMF alone was added. These mixtures were placed at room temperature for at least 4 days without disruption. Thioflavin T assay. […] The mixture was vortexed briefly and the fluorescence emission maximum measured. For the dose dependence experiment, the emission wavelength was recorded at 490 nm. […] Turbidity was measured at 30° C. with orbital shaking in half area, nonbinding surface 96-well plates (Corning) on a TECAN GENios plate reader. […] Fluorescence was measured on a SpectraMax Gemini (Molecular Devices, Sunnyvale, Calif.), using an excitation wavelength of 446 nm (±5 nm) and an emission of 490 nm (±5 nm). The data was fit to sigmoidal curves using DeltaGraph (DeltaPoint, Inc) and the IC50 for each treatment recorded. […] A linear relationship between thioflavin T fluorescence and percent aggregation was used for simplicity.
# Rat hippocampal neurons [5] = test: MTT cell viability assay, neurons exposed to pre-treated Aβ(1-42); assay type: cell-based; details: high molar concentrations of Aβ; SLF-Benz-CR at 100 nM
# Method: Cell Viability Assay. Rat hippocampal (E19.5 and P0) neurons were prepared as previously described (Graef, et al., Nature 401, 703-708 (1999). Fresh Aβ(1-42) (100 uM) (SEQ ID NO: 2) was prepared under basic conditions and incubated with inhibitors for two days at 22° C. in PBS pH 7.2 and then diluted 1:4 with culture media and applied to neurons. MTT assays were conducted as per manufacturer's specifications after two additional days of incubation at 37° C. and 5% CO2. The inhibitor concentrations are the in vitro incubation values.
# Aβ(1-40) = target: T3, Aβ(1-40) (Homo sapiens, UniProt P05067); test: Surface plasmon resonance, binding to immobilized Aβ(1-40)
# T3 construct: purchased AnaSpec, San Jose, Calif; host or cells: synthetic peptide
# T3 sequence (P05067 672-711): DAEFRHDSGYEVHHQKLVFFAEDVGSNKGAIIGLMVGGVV
# Method: as §1
# Aβ(1-42) [6] = test: Atomic force microscopy of Aβ aggregates; assay type: biochemical; details: samples containing Aβ(1-42) and FKBP
# Method: Atomic Force Microscopy. Samples for AFM were prepared as for TEM, above, applied to a clean silicon surface, washed twice with dH2O, dried, and imaged at a scan rate of 1 Hz using a silicon probe (TESP) on an AFM Nanoscope Dimension 3000 (Digital Instruments) in Tapping Mode (C. Goldsbury, et al, J. Mol. Biol. 285, 33-39 (1999). The dimensions of the globular aggregates in the samples treated with SLF-CR/FKBP were approximated using NIH Image.
# T1 sequence (P05067 672-713): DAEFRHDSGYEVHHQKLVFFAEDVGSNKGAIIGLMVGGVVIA
molecule,measurement,setting,value
"FKBP: bacterially-expressed recombinant FKBP12, FK506-binding protein, prolyl isomerase",effect on Aβ aggregation / turbidity,Aβ(1-42) [1],did not interfere with Aβ aggregation
same,size or abundance of Aβ fibrils (TEM),Aβ(1-42) [2],does not influence the formation or architecture of Aβ fibrils
same,Tunel positive cells / Aβ toxicity,Rat hippocampal neurons [3],failed to substantially reduce the number of Tunel positive cells
"Nc1c(/N=N/c2ccc(-c3ccc(/N=N/c4cc(S(=O)(=O)O)c5ccccc5c4N)cc3)cc2)cc(S(=O)(=O)O)c2ccccc12 [CR, Congo red, reference compound]","KD for FKBP, fold higher than SLF-CR",FKBP12,20 fold
same,effect on Aβ aggregation / turbidity,Aβ(1-42) [1],modest inhibitor of turbidity
same,thioflavin T fluorescence,Aβ(1-42) [4],failed to fully block thioflavin T fluorescence
same,size or abundance of Aβ fibrils (TEM),Aβ(1-42) [2],ineffective
same,rescue of neurons,Rat hippocampal neurons [5],unable to rescue
same,Tunel positive cells / Aβ toxicity,Rat hippocampal neurons [3],failed to substantially reduce the number of Tunel positive cells
CCC(C)(C)C(=O)C(=O)N1CCCCC1C(=O)OC(CCc1ccc(OC)c(OC)c1)c1cccc(OCC(=O)Nc2c(N=Nc3ccc(-c4ccc(N=Nc5cc(S(=O)(=O)O)c6ccccc6c5N)cc4)cc3)cc(S(=O)(=O)O)c3ccccc23)c1 (stereo not drawn) [SLF-CR],affinity for Aβ,"Aβ(1-40); immobilized Aβ(1-40), SPR",not significantly different from that of CR
same,SPR response on immobilized amyloid,"Aβ(1-40); ternary complex test, compound alone or pre-incubated with FKBP",~140 RUs
same,binding to immobilized FKBP,FKBP12,comparable affinity
same,recruitment of FKBP to Aβ by electron microscopy,Aβ(1-42) [2],confirmed
same,size or abundance of Aβ fibrils (TEM),Aβ(1-42) [2],ineffective
same,fibril formation (AFM),Aβ(1-42) [6],failed to form fibrils
same,Tunel positive cells / Aβ toxicity,Rat hippocampal neurons [3],failed to substantially reduce the number of Tunel positive cells
"CC[C@@]1(O)C(=O)OCc2c1cc1n(c2=O)Cc2cc3ccccc3nc2-1 [camptothecin, reference compound]",remaining cells positive for Tunel,Rat hippocampal neurons [3]; after two days,36%
CCC(C)(C)C(=O)C(=O)N1CCCC[C@H]1C(=O)O[C@H](CCc1ccc(OC)c(OC)c1)c1cccc(OCC(=O)O)c1 [SLF],binding to immobilized FKBP,FKBP12,comparable affinity
